Data published in paper PMC6198970, “Safety, efficacy, and dose response of the maturation inhibitor GSK3532795 (formerly known as BMS-955176) plus tenofovir/emtricitabine once daily in treatment-naive HIV-1-infected adults: Week 24 primary analysis from a randomized Phase IIb trial” (PLoS ONE, 2018).
Like-named read-outs stand apart in the source and are kept apart here.

Assays:
[1] = Adverse events through Week 24; assay type: in vivo, HIV-1-infected adults
Description: (§1) Physical examinations, measurement of vital signs, and clinical laboratory evaluations were performed at Weeks 4, 8, 12, 16 and 24, and participants were closely monitored for AEs and SAEs throughout. AEs were classified according to MedDRA version 19.0. The severity and relationship to study drug was assessed by the local investigator.

[2] = Clinical laboratory evaluations; assay type: in vivo, HIV-1-infected adults
Description: as §1

[3] = Population PK model (NONMEM); assay type: in vivo, HIV-1-infected adults
Description: Population PK analyses were conducted via non-linear mixed effects using non-linear mixed-effects modeling (NONMEM) software, version 7, level 2.0 (ICON Development Solutions, Hanover, Maryland, USA).[17] A summary of the population PK modeling methods and exposure response exploratory analyses for efficacy and safety is included in Supporting information.
Population pharmacokinetic (PK) analyses were conducted via nonlinear mixed-effects modelling using nonlinear mixed effects modeling (NONMEM) software, version 7, level 2.0 (ICON Development Solutions, Hanover, MD). Assessment of model adequacy and decision about increasing model complexity was driven by the data and guided by goodness-of-fit criteria, including visual inspection of diagnostic scatter plots (observed versus predicted concentration, residual/weighted residual versus predicted concentration or time and histograms of individual random effects, for example), successful convergence of the minimization routine, plausibility of parameter estimates, precision of parameter estimates, correlation between model parameter estimation errors < 0.95, and the Akaike information criterion (AIC), given the minimum objective function value and number of estimated parameters. An exploratory investigation of covariate-parameter relationships was undertaken as part of the population PK analysis. Predictive performance was assessed using stratified non-parametric bootstrapping (n=500). Following the construction of a suitable PK model, individual-specific steady-state exposure metrics were derived for exposure-response investigation. An exploratory plotting analysis was performed to investigate exposure–response relationships for efficacy and safety endpoints, where endpoints including fraction of participants with <40 c/mL at Week 24 (modified intent-to-treat population) and percentage of participants with Grade 1, 2, 3, and 4 gastrointestinal events (adverse events >7 days) were analysed as a function of exposure quantiles.

[4] = system: HIV-1 clinical isolates; conditions: cited from earlier work
[5] = system: human immunodeficiency virus type-2 (HIV-2) isolates; set-up: method as in protocol Section 1.4.1.2; conditions: active against 1 of 3 HIV-2 isolates; ref protocol Section 1.4.1.2; cited from earlier work
[6] = system: HIV-1 protease; set-up: method as in protocol Section 1.4.1.2; conditions: ref protocol Section 1.4.1.2; cited from earlier work
[7] = set-up: method as in protocol Section 1.4.1.2; conditions: ref protocol Section 1.4.1.2; cited from earlier work
[8] = system: OATP1B3; set-up: method as in protocol Section 1.4.1.2; conditions: ref protocol Section 1.4.1.2; cited from earlier work
[9] = system: P gp, NTCP, OAT1, OAT3, MRP2, BSEP; set-up: method as in protocol Section 1.4.1.2; conditions: ref protocol Section 1.4.1.2; cited from earlier work
[10] = set-up: method as in protocol Section 1.4.1.2; conditions: local lymph node assay in the mouse; ref protocol Section 1.4.1.2; cited from earlier work
[11] = cited from earlier work
[12] = set-up: method as in Study AI468034; conditions: 120 mg MC tablet; ref Study AI468034; cited from earlier work
[13] = set-up: method as in Study AI468049; conditions: 180 mg MC tablet, preliminary, ref Study AI468049, cited from earlier work
[14] = set-up: method as in Study AI468041; conditions: BMS-955176 80 mg SDD suspension with combined oral contraceptive; ref Study AI468041; cited from earlier work
[15] = system: reverse transcriptase (RT), protease, and integrase inhibitor-resistant viruses; conditions: cited from earlier work
[16] = system: HIV-1; conditions: 40% HS supplemented with additional human serum albumin; ref protocol Section 1.4.1.2; cited from earlier work
[17] = cited from earlier work; remark: listed apart in the source
[18] = cited from earlier work; remark: listed apart in the source
[19] = ref protocol Section 1.4.1.2, cited from earlier work
[20] = GSK3532795: range across 60, 120, 180 mg arms, EFV 600 mg
[21] = GSK3532795 arms pooled, EFV 600 mg, abstract

C=C(C)[C@@H]1CC[C@]2(NCCN3CCS(=O)(=O)CC3)CC[C@]3(C)[C@H](CC[C@@H]4[C@@]5(C)CC=C(c6ccc(C(=O)O)cc6)C(C)(C)[C@@H]5CC[C@]43C)[C@@H]12 [GSK3532795]
Mean time to onset of first diarrhea event ([1]; 60 mg arm): 48.4 days | Mean time to onset of first diarrhea event ([1]; 120 mg arm): 19.9 days | Mean duration of first diarrhea event ([1]; 120 mg arm (longest)): 104.2 days | Mean time to onset of first diarrhea event ([1]; 180 mg arm): 11.3 days | SAE considered related to study drug ([1]; GSK3532795 120 mg (no action taken), EFV (led to discontinuation)): Grade 3 abdominal pain | Grade 1–4-related abdominal pain [1, 20]: 6–16% | Grade 1–4-related diarrhea [1, 20]: 27–51% | Adverse events leading to discontinuation [1, 21]: 5% | Serious adverse events [1, 21]: 5% | Frequency of Grade 1–4-related AEs ([1]; GSK3532795 arms pooled, EFV 600 mg, through Week 24): 53% | Grade 3 low potassium ([2]; 60 mg arm): one participant | Mean total cholesterol, direction of change ([2]; 120 mg arm, baseline to Week 24): decreased | Grade 3 laboratory abnormalities in triglycerides and creatinine clearance (CrCl) ([2]; 180 mg arm): one participant each | Grade 3 liver chemistry abnormalities ([2]; GSK3532795 arms): three participants | Mean decrease in triglyceride levels ([2]; range across all GSK3532795 arms, baseline to Week 24): 5.0 to 12.9 mg/dL | Reduction in clearance in African-American participants ([3]; compared with White participants): 23% | Additive residual error ([3]; final population PK model): 37400 | First-order absorption rate (Ka), estimate ([3]; final population PK model): 0.0236 h⁻¹ | Interindividual variance of CL ([3]; final population PK model): 0.0610 | Interindividual variance of Ka ([3]; final population PK model): 0.164 | Interindividual variance of V ([3]; final population PK model): 0.462 | Interoccasion variance of F1 ([3]; final population PK model): 0.0512 | Proportional residual error ([3]; final population PK model): 0.0165 | clearance ([3]; human, in vivo, oral, final population PK model, read-out: Clearance (CL), estimate (converted)): 37.3 mL/min | Vd ([3]; human, in vivo, oral, final population PK model, read-out: Volume of distribution (V), estimate): 5.58 L | Increase in clearance in participants with Grade ≥2 diarrhea ([3]; relative to no diarrhea): 18% | EC50 ([4]; PBMCs, CRF01_AE subtype, N = 7, ref protocol Section 1.4.1.2): 77 nM | Fold less susceptible, CRF01_AE (clade AE) compared to clade B ([4]; in vitro, ref protocol Section 1.4.1): 2-3 fold | EC50 [5]: 15 nM | Direct inhibition of HIV-1 protease [6]: does not directly inhibit HIV-1 protease | Route of elimination [7]: eliminated principally via metabolism followed by excretion in bile with little renal excretion | Tissue distribution [7]: distributed preferentially into the duodenum, liver, and lymph nodes with little penetration into the brain | IC50 [8]: 4000 nM | Inhibition of P gp, NTCP, OAT1, OAT3, MRP2, and BSEP [9]: not an inhibitor | Skin sensitization [10]: not a skin sensitizer | Safety in Phase 1 ([11]; SAD 10-120 mg, MAD 10-80 mg QD for 14-28 days, ref Study AI468001): No SAEs, deaths, or discontinuations related to study drug occurred | Half life (T-HALF) ([11]; healthy subjects, ref Study AI468001): approximately 35 hours | Increase in BMS-955176 AUC(TAU) ([11]; multiple dose with daily 400 mg ATV and a standard meal for 14 days, ref AI468001): ~ 25% | Time to steady state ([11]; multiple-dose once daily, ref Study AI468001): approximately 7 days | Increase in Cmax and AUC(INF) with dose ([11]; single dose 10-120 mg, multiple dose 10-80 mg QD, ref Study AI468001): slightly less than dose-proportional | Increase in BMS-955176 AUC(INF) ([11]; single dose following two doses of 100 mg RTV, ref AI468001): ~48% | Bioavailability lower relative to 80 mg SDD suspension [12]: approximately 23% | Impact of high fat meal on Cmax [12]: negligible impact | Increase in C24 with a high fat meal relative to fasted [12]: approximately 70% | Increase in Cmax relative to fasted ([13]; all three meal types): approximately 2 fold | Increase in AUC relative to fasted ([13]; high fat meal): 2.5 fold | Increase in AUC relative to fasted ([13]; standard meal): 2.1 fold | Effect on exposures to ethinyl estradiol (EE) and norelgestromin (NGMN) [14]: reduced | Activity against RT, protease, and integrase inhibitor-resistant viruses ([15]; EC50 values similar to wild-type, ref protocol Section 1.4.1.2): retains complete activity | Activity against a panel of PI-resistant isolates from PI-treated subjects ([15]; major and minor PI-resistance determinants in protease and Gag): maintained activity | Reduction of antiviral activity [16]: approximately 4 fold | Blood pressure and electrocardiogram ([17]; at 20 mg/kg, ref protocol Section 1.4.1.2): unaffected | No-observed-effect level (NOEL/NOAEL) for cardiovascular effects (heart rate) ([17]; dog, in vivo): 2 mg/kg | AUC at NOAEL ([18]; 30 mg/kg/day, ref protocol Section 1.4.1.2): 1.135e+08 µg·h/mL | ALT activity not recovered, fold ([18]; 100 mg/kg/day, 1 male, end of 2-week recovery, ref protocol Section 1.4.1.2): 1.94 x | AUC at dose with dose-limiting toxicity ([18]; 100 mg/kg/day, ref protocol Section 1.4.1.2): 357 g·h/mL | Finding at high dose ([18]; 300 mg/kg/day, Days 8 to 9, ref protocol Section 1.4.1.2): early euthanasia of all the rats | NOAEL ([18]; rat, in vivo): 30 mg/kg/day | Developmental toxicity classification ([19]; mice, no maternal toxicity at any dose): selective developmental toxicant | Developmental NOAEL ([19]; mouse EFD): 45 mg/kg/day | Cumulative postimplantation losses ([19]; printed dose 100 mg/kg/day, […] in control litters): 11.5% | Reductions in fetal body weight relative to control values [19]: 5%
